“And” between values parts separate entries of the source, which are not always exact repeats. Identical values can stand only once.
Columns and labels:
[1] = biological target: T1, Brd4 foci at the Pou5f1 locus (Mus musculus, UniProt Q9ESU6); assay: Brd4 cluster signal at Pou5f1 upon inhibition (live-cell confocal/STED scans); type: cell-based; settings: Pou5f1
T1 construct: integrating a SNAP-tag at the N-terminus of the endogenous Brd4; endogenous in cells; host or cells: mouse ESCs OMG-1, homozygous SNAP-Brd4 knock-in clone 9 (printed as 'OMG SNAP-Cdk9 clone 9')
Method: For real-time confocal and STED imaging, example implementations may program the wave generator to scan 2 μm×2 μm or 1 μm×1 μm xy areas in 0.8 sec or 0.2 sec respectively. 3D scanning was performed (via, e.g., detection system 150) by acquiring 5 xy scans while moving the stage by 0.5 μm in z between scans. TTL pulses corresponding to single-photon events from the APDs, together with the trigger pulses from the wave generator were detected using a field-programmable gate array (FPGA) data acquisition system (National Instruments, PCIe-7852R).
(§1) Before imaging, cells were seeded onto 8-chamber coverglass (LabTek, 155411) coated with 5 μg/ml laminin (BioLamina LN511), in −2i media (OMG) or +2i media (NMG) and appropriate drugs. For SiR staining, cells were labeled with media containing 0.3 μM SiR-BG for 10 mins, at 37° C., followed by three washes with new media.
To generate OMG or NMG SNAP-Brd4 targeted cells, OMG-1 or NMG mESCs (1×106) were transfected with 10 μg SNAP-Brd4 donor vector and 0.6 μg espCas9-gRNA-Brd4 vector. 10 days after transfection, the cells were trypsinized, labeled with SiR-BG and subjected to FACS, generating a first-round SiR-positive pool. This pool was then expanded, stained with SiR-BG and subjected to second FACS round and individual clones were picked and expanded.

[2] = tested on: Pou5f1 transcription site (MCP-mNeonGreen nascent RNA); assay: MCP-mNeonGreen nascent transcription at the endogenous Pou5f1 locus in mESCs (live-cell imaging); type: cell-based, mouse
Method: All the mESCs were cultured and maintained in +2i media with appropriate selection drugs on 0.1% gelatin-coated dishes, at 37° C. in a humidified 5% CO2 incubator. +2i media contain D-MEM (Thermo Fisher Scientific 10313021), 15% fetal bovine serum (Gemini Bio 100-500), 0.1 mM β-mercaptoethanol (Thermo Fisher Scientific 21985023), 2 mM L-alanyl-L-glutamine (Thermo Fisher Scientific 35050079), 1×MEM nonessential amino acids (Thermo Fisher Scientific 11140076), 1000 U/mL LIF (Millipore ESG1107), […] (Millipore 361559) and 1 μM PD0325901 (Axon Medichem 1408). OMG and NMG SNAP-Rpb1 cells were cultured with +2i media plus 3 μg/ml α-amanitin.
as §1
Wide-Field Cell Imaging Experiments. Live cell imaging experiments (tdPCP-EGFP and MCP-mNeonGreen tracking). For time-lapse imaging, a z-stack of 11 frames at 1 frame/second was acquired, by stepping the sample along the z-axis using the nanopositioning stage (250 nm steps). The CCD data were analyzed using IDL 6.4 (ITTVIS). Maximum projection images were calculated for each stack, and the resulting 11 sec/frame movie was used to track the intensities of individual tdPCP-EGFP-tagged transcription sites. A particle tracking routine (Crocker and Grier, 1996) was used for finding the positions of the transcription site in each frame and linking them into a 2D trajectory. The intensity trace of tdPCP-EGFP at the transcription site was corrected for photo-bleaching using the time trace of tdPCP-EGFP in a nearby nuclear region. The auto-correlation function was calculated (for the tdPCP-EGFP fluctuation analysis), or the data were imported in Origin 8.5.0 (OriginLab) and the trace fitted to a single-exponential decay (for the transcription inhibition experiments).

[3] = tested on: H3K27ac at the Pou5f1 locus; assay: ChIP-qPCR analysis of H3K27ac after A-485 treatment; type: cell-based, mouse; settings: for H3K27ac characteristic decay time: 1 μM A-485
Method: ChIP-qPCR analysis of H3K27ac after A-485 treatment. For H3K27ac and H3 ChIP-qPCR experiments, confluent 10 cm dishes (˜3×10^6 OMG SNAP-Sox2 cells) were treated with 1 μM A-485 (Structural Genomics Consortium) or 0.1% v/v DMSO for the indicated times. Fixation, cell lysis, sonicated chromatin preparation, immunoprecipitation and qPCR analysis were performed as described for OMG SNAP-Rpb1 cells in the previous section, with the exception that 5 μg H3K27ac antibody (Active Motif 39685) or 5 μg H3 antibody (Active Motif 39763) were used for each IP respectively.

[4] = tested on: Sox2 foci at the Pou5f1 locus; assay: Sox2 cluster signal at Pou5f1 upon inhibition (live-cell confocal/STED scans); type: cell-based, mouse; settings: Pou5f1
From the text: Contrary to Brd4, Med22 and Cdk9, Sox2 clustering persists through transcription inhibition by either JQ1 or FVP (FIG. 8D). The differential sensitivities between factors and modes of transcription inhibition unveil a hierarchy of molecular transactions that control Pou5f1 transcription: Sox2 binding occurs upstream of Cdk9/Med22/Brd4 recruitment and accumulation of all of 4 regulatory factors occurs upstream of Pol II release into productive elongation. […] For real-time confocal and STED imaging, example implementations may program the wave generator to scan 2 μm×2 μm or 1 μm×1 μm xy areas in 0.8 sec or 0.2 sec respectively. 3D scanning was performed (via, e.g., detection system 150) by acquiring 5 xy scans while moving the stage by 0.5 μm in z between scans. TTL pulses corresponding to single-photon events from the APDs, together with the trigger pulses from the wave generator were detected using a field-programmable gate array (FPGA) data acquisition system (National Instruments, PCIe-7852R). Before imaging, cells were seeded onto 8-chamber coverglass (LabTek, 155411) coated with 5 μg/ml laminin (BioLamina LN511), in -2i media (OMG) or +2i media (NMG) and appropriate drugs. For SiR staining, cells were labeled with media containing 0.3 μM SiR-BG for 10 mins, at 37° C., followed by three washes with new media. Targeted integration of SNAP-tag in the endogenous Sox2, Cdk9, Brd4 and Med22 genes. To generate OMG or NMG SNAP-Sox2 targeted cells, OMG-1 or NMG mESCs (1×106) were transfected with 10 μg SNAP-Sox2 donor vector and 0.6 μg […] vector. 10 days after transfection, the cells were trypsinized, labeled with 0.3 μM SiR-BG for 10 mins, rinsed three times with new media, followed by immediate fluorescence-activated cell sorting (FACS). All the SiR-positive cells were collected, expanded for 2 weeks, trypsinized, labeled with SiR-BG and sorted again. Almost 100% SNAP positive pools were obtained from the second round of sorting and individual clones were picked and expanded. Homozygous clones (dubbed “OMG SNAP-Sox2 clone 8” and NMG SNAP-Sox2 clone 3'' respectively) with both Sox2 alleles correctly targeted with SNAP-tag integrations and that show SiR nuclear staining were selected for all further experiments.

Brd4 signal exponential fit τ ([1]; inhibition with 1 μM A-485 (FIG. 16J legend)): 8 ± 1 s
Brd4 cluster shrinking time ([1]; upon A-485 inhibition): 8 min
Structure (SMILES): CNC(=O)Nc1ccc2c(c1)CC[C@@]21OC(=O)N(CC(=O)N(Cc2ccc(F)cc2)[C@@H](C)C(F)(F)F)C1=O [A-485]
time until nascent Pou5f1 transcription shuts down ([2]; 1 μM A-485): ≤ 20 min
MCP decay time upon p300/CBP HAT inhibition ([2]; Pou5f1, mESCs, 1 μM A-485, mean±S.D., n=17): 635 s and 635 ± 350 s
transcription shutdown time-scale ([2]; Pou5f1, upon A-485 inhibition): 10.5 min
response of individual Pou5f1 transcription sites at intermediate inhibitor concentration ([2]; intermediate [A-485] or [JQ1]): all-or-none responses
H3K27ac characteristic decay time ([3]; primer pair 4): 7 ± 2 min
H3K27ac characteristic decay time ([3]; primer pair 5): 7 ± 4 min
H3K27ac characteristic decay time ([3]; primer pair 6): 5 ± 1 min
H3K27ac characteristic decay time ([3]; primer pair 7): 13 ± 4 min
H3K27ac loss kinetics ([3]; upon A-485 inhibition): ~7 min
Sox2 cluster size characteristic decay time ([4]; upon A-485 inhibition): 12.5 min
Sox2 signal exponential fit τ ([4]; upon adding 1 μM A-485 (FIG. 8I legend)): 12.5 ± 8.6 s
